Experimental data as given in US20110200686A1, “COMPOSITIONS OF MODULATORS OF THE WNT/B-CATENIN PATHWAY AND AN N-CINNAMYL-N'BENZHYDRYL PIPERAZINE AND THEIR USE IN TREATING NEOPLASTIC CONDITIONS INCLUDING MALIGNANT MELANOMA” (UNIVERSITY OG WASHINGTON, priority 2008, published 2011).

Legend:
GSK-3 = settings: cited from earlier work; for selectivity for GSK-3: literature values
Wnt/β-catenin pathway [1] = assay: Wnt/β-catenin-responsive (TCF/LEF) luciferase reporter assay in melanoma cells; type: cell-based, human
Description: (§1) Wnt3a conditioned media was collected from sub-confluent melanoma cell lines, and this media was tested for its ability to activate Wnt/β-catenin signaling in UACC 1273 melanoma cells that were stably transduced with a Wnt/β-catenin-responsive firefly luciferase reporter and a constitutive Renilla luciferase gene used for normalization (Cignal TCF/LEF transcriptional reporter construct; SABiosciences, Frederick, Md.). Conditioned media was spun down to clear cell debris and then incubated with reporter cells overnight. Activation of the Wnt/β-catenin reporter was measured using a DLR assay kit (Promega; Madison, Wis.).
(§2) Flunarizine and QS11 were solubilized in dimethyl-sulfoxide (DMSO) vehicle, which was used as a control (vol/vol) for the described experiments. Drug incubations were 24-48 hours in duration.
A TCF/LEF transcriptional reporter gene cell line used to monitor the activation of the Wnt signal transduction pathway was utilized in a high throughput screen of a library of chemical compounds to identify compounds that synergize with lithium in activating the Wnt/β-catenin pathway.

human melanoma cells = assay: Proliferation of human melanoma cells measured by Renilla luciferase activity; type: cell-based; settings: flunarizine 1 μM alone, FIG. 5
Description: as §1, §2

B16 melanoma cells = assay: Cell proliferation assay, B16 murine melanoma cells; type: cell-based; settings: NaCl 20 mM, negative control, FIG. 3B
Description: For cell counts by hematocytometer, cells were plated at a uniform density (usually between 10,000 to 25,000 cells per well) in a 12 or 24 well tissue culture plate in the appropriate media supplemented with 2% FBS. Cells were then incubated at 37° C. at 5% CO2 for three to seven days based on individual cell doubling time. At the end of the timecourse, cells were trypsinized, resuspended in the appropriate media, and counted using a standard hematocytometer. Dead cells were identified by 0.4% Trypan Blue stain. Cell proliferation experiments were performed with a minimum of six biologic replicates. […] For relative cell proliferation assays of B16:GFP cells incubated with lithium chloride or sodium chloride, cell proliferation was measured by relative firefly luciferase units (Promega; Madison, Wis.).

Wnt/β-catenin pathway [2] = settings: positive control, known from Zhang et al. 2007; cited from earlier work

## O=[N+]([O-])c1ccc(NCCNc2ncc(-c3ncc[nH]3)c(-c3ccc(Cl)cc3Cl)n2)nc1 [CHIR-837]
GSK-3
  selectivity for GSK-3: > 5,000 fold

## Fc1ccc(C(c2ccc(F)cc2)N2CCN(CC=Cc3ccccc3)CC2)cc1 [flunarizine, 1-[bis(4-fluorophenyl)methyl]-4-cinnamyl-piperazine]
Wnt/β-catenin pathway [1]; flunarizine 1 μM, human melanoma cells, FIG. 6
  activation of Wnt-responsive reporter together with Wnt-3a conditioned media: synergizes with Wnt-3a conditioned media to activate a Wnt-responsive reporter
Wnt/β-catenin pathway [1]; flunarizine with lithium, FIG. 4
  enhancement of lithium-induced activation of the TCF/LEF reporter gene: ~100 fold
Human melanoma cells
  proliferation of human melanoma cells (Renilla luciferase activity): inhibited

## [Cl-].[Na+] [NaCl, Sodium chloride]
B16 melanoma cells
  effect on B16 melanoma cell growth: no effect on cell growth

## OC[C@H](Cc1ccccc1)Nc1nc(Oc2ccc3c(c2)CCC3)nc2c1ncn2Cc1ccc(-c2ccccc2)cc1 [QS11]
Wnt/β-catenin pathway [2]
  synergy with Wnt-3a in activating the Wnt pathway: act synergistically with Wnt-3a to activate the Wnt pathway
